Where two headings read alike, the source gives them in different places.
Assays:
Test in all cases: ActivX kinase probe assay (human PBMC)
Type in all cases: binding
[1] = target: TAO2 (Homo sapiens (Human), UniProt Q9UL54); conditions: read-out: percent inhibition
[2] = target: PIP4K2C (Homo sapiens (Human), UniProt Q8TBX8)
[3] = target: PIK3CD (Homo sapiens (Human), UniProt O00329); conditions: read-out: percent inhibition
[4] = test system: IKKe, TBK1
[5] = target: AMPKa1 (Homo sapiens (Human), UniProt Q13131); conditions: read-out: percent inhibition
[6] = target: CaMK1a (Homo sapiens (Human), UniProt Q14012); conditions: read-out: percent inhibition
[7] = target: IKKe (Homo sapiens (Human), UniProt Q14164); conditions: read-out: percent inhibition
[8] = target: MLKL (Homo sapiens (Human), UniProt Q8NB16); conditions: read-out: percent inhibition
[9] = test system: KSR1, KSR2
[10] = target: FYN (Homo sapiens (Human), UniProt P06241); conditions: read-out: percent inhibition
[11] = test system: PCTAIRE2, PCTAIRE3
[12] = target: LATS2 (Homo sapiens (Human), UniProt Q9NRM7); conditions: read-out: percent inhibition
[13] = target: JAK2 domain2 (Homo sapiens (Human), UniProt O60674); conditions: read-out: percent inhibition
[14] = target: RSKL1 domain1 (Homo sapiens (Human), UniProt Q96S38); conditions: read-out: percent inhibition
[15] = target: GCK (Homo sapiens (Human), UniProt Q12851); conditions: read-out: percent inhibition
[16] = target: TLK2 (Homo sapiens (Human), UniProt Q86UE8); conditions: read-out: percent inhibition
[17] = target: PKR (Homo sapiens (Human), UniProt P19525); conditions: read-out: percent inhibition
[18] = test system: Wnk1, Wnk2, Wnk3
[19] = target: OSR1 (Homo sapiens (Human), UniProt O95747); conditions: read-out: percent inhibition
[20] = test system: AMPKa1, AMPKa2
[21] = target: PIP5K3 (Homo sapiens (Human), UniProt Q9Y2I7); conditions: read-out: percent inhibition
[22] = test system: MST4, YSK1
[23] = test system: ABL, ARG
[24] = test system: PITSLRE
[25] = target: AKT1 (Homo sapiens (Human), UniProt P31749); conditions: read-out: percent inhibition
[26] = target: TBK1 (Homo sapiens (Human), UniProt Q9UHD2); conditions: read-out: percent inhibition
[27] = test system: FYN, SRC, YES
[28] = target: RIPK3 (Homo sapiens (Human), UniProt Q9Y572); conditions: read-out: percent inhibition
[29] = target: MAP3K4 (Homo sapiens (Human), UniProt Q9Y6R4); conditions: read-out: percent inhibition
[30] = target: BRAF (Homo sapiens (Human), UniProt P15056); conditions: read-out: percent inhibition
[31] = target: eEF2K (Homo sapiens (Human), UniProt O00418); conditions: read-out: percent inhibition
[32] = target: MAP2K6 (Homo sapiens (Human), UniProt P52564); conditions: read-out: percent inhibition
[33] = target: TLK1 (Homo sapiens (Human), UniProt Q9UKI8); conditions: read-out: percent inhibition
[34] = target: ZAP70 (Homo sapiens (Human), UniProt P43403); conditions: read-out: percent inhibition
[35] = target: NuaK2 (Homo sapiens (Human), UniProt Q9H093); conditions: read-out: percent inhibition
[36] = target: p38a (Homo sapiens (Human), UniProt Q16539); conditions: read-out: percent inhibition
[37] = read-out: percent inhibition, PIP4K2C (first line of two)
[38] = read-out: percent inhibition, PIP4K2C (second line of two)

Chain of PIP4K2C (Q8TBX8 whole entry): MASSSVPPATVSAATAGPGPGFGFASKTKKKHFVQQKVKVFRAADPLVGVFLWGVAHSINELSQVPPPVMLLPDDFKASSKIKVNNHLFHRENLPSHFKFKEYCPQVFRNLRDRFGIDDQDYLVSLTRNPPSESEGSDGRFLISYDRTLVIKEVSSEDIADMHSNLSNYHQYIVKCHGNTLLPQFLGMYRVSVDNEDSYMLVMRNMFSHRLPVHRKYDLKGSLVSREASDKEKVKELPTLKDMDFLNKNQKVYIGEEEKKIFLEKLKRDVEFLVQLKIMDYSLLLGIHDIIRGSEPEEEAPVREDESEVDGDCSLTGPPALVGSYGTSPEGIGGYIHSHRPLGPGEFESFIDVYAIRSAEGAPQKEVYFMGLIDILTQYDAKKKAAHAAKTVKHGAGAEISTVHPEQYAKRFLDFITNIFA
Chain of PIK3CD (O00329 whole entry): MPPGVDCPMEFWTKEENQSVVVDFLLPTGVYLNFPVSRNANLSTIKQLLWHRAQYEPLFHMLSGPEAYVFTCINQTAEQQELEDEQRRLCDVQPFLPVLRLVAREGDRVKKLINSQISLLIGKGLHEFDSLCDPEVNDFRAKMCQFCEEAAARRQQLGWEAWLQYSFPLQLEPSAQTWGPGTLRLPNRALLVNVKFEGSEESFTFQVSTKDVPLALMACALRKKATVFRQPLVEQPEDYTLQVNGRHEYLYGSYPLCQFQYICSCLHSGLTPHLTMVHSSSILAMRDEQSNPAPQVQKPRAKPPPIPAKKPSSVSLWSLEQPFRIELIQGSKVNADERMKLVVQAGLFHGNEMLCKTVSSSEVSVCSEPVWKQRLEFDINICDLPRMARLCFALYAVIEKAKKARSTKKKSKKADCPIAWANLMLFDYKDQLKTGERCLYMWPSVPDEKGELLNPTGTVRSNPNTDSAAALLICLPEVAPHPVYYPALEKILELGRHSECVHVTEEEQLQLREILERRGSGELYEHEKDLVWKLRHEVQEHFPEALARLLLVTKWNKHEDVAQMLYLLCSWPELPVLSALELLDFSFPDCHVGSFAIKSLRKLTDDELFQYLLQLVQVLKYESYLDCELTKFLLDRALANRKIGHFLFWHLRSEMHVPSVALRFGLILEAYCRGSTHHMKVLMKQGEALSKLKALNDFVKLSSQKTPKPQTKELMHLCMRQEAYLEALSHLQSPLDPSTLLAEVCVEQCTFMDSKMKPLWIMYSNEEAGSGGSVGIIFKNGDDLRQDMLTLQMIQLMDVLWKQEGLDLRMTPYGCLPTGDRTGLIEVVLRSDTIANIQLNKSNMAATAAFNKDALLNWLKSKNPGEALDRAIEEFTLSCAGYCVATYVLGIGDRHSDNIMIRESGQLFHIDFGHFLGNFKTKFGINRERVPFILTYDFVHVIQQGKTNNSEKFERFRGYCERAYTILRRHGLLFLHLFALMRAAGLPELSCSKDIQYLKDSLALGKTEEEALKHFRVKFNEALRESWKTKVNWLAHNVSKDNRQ
Chain of PIK3CD (P27986 whole entry partner): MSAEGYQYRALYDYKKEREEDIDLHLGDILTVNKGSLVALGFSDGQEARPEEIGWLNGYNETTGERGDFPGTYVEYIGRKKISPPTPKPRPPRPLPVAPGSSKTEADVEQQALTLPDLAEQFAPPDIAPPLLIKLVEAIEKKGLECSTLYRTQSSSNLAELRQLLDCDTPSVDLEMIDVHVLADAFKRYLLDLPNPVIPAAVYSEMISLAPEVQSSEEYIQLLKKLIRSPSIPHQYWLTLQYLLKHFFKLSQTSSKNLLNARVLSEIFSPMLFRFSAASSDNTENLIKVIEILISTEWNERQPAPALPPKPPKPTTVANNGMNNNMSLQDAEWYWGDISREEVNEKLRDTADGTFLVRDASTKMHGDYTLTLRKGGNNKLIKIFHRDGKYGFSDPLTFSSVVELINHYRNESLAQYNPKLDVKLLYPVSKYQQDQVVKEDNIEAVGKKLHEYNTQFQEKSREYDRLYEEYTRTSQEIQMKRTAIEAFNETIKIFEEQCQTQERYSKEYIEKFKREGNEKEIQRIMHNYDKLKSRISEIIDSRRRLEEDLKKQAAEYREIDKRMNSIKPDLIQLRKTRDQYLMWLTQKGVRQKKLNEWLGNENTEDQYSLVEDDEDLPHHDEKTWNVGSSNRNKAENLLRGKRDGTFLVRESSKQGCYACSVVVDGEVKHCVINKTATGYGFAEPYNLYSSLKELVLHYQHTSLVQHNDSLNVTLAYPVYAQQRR
Chain of IKKe (Q14164 whole entry): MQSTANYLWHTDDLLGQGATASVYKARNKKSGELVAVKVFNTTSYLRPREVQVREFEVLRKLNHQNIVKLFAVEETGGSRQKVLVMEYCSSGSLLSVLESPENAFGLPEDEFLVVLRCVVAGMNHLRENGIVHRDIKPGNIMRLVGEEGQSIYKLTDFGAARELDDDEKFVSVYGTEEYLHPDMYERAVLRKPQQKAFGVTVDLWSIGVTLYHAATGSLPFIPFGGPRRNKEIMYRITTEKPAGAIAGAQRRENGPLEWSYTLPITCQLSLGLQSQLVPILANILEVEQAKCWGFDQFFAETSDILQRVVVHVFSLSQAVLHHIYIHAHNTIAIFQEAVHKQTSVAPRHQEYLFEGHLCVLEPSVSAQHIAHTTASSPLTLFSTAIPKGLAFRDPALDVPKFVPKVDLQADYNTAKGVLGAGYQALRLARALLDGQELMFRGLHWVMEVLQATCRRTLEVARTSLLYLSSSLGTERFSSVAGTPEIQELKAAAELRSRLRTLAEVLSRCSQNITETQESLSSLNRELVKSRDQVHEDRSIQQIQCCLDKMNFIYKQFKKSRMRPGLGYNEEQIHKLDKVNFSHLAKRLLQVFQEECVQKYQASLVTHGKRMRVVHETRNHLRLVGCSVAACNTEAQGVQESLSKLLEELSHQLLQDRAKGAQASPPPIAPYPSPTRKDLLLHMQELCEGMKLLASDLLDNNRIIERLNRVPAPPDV
Chain of PIP5K3 (Q9Y2I7 whole entry): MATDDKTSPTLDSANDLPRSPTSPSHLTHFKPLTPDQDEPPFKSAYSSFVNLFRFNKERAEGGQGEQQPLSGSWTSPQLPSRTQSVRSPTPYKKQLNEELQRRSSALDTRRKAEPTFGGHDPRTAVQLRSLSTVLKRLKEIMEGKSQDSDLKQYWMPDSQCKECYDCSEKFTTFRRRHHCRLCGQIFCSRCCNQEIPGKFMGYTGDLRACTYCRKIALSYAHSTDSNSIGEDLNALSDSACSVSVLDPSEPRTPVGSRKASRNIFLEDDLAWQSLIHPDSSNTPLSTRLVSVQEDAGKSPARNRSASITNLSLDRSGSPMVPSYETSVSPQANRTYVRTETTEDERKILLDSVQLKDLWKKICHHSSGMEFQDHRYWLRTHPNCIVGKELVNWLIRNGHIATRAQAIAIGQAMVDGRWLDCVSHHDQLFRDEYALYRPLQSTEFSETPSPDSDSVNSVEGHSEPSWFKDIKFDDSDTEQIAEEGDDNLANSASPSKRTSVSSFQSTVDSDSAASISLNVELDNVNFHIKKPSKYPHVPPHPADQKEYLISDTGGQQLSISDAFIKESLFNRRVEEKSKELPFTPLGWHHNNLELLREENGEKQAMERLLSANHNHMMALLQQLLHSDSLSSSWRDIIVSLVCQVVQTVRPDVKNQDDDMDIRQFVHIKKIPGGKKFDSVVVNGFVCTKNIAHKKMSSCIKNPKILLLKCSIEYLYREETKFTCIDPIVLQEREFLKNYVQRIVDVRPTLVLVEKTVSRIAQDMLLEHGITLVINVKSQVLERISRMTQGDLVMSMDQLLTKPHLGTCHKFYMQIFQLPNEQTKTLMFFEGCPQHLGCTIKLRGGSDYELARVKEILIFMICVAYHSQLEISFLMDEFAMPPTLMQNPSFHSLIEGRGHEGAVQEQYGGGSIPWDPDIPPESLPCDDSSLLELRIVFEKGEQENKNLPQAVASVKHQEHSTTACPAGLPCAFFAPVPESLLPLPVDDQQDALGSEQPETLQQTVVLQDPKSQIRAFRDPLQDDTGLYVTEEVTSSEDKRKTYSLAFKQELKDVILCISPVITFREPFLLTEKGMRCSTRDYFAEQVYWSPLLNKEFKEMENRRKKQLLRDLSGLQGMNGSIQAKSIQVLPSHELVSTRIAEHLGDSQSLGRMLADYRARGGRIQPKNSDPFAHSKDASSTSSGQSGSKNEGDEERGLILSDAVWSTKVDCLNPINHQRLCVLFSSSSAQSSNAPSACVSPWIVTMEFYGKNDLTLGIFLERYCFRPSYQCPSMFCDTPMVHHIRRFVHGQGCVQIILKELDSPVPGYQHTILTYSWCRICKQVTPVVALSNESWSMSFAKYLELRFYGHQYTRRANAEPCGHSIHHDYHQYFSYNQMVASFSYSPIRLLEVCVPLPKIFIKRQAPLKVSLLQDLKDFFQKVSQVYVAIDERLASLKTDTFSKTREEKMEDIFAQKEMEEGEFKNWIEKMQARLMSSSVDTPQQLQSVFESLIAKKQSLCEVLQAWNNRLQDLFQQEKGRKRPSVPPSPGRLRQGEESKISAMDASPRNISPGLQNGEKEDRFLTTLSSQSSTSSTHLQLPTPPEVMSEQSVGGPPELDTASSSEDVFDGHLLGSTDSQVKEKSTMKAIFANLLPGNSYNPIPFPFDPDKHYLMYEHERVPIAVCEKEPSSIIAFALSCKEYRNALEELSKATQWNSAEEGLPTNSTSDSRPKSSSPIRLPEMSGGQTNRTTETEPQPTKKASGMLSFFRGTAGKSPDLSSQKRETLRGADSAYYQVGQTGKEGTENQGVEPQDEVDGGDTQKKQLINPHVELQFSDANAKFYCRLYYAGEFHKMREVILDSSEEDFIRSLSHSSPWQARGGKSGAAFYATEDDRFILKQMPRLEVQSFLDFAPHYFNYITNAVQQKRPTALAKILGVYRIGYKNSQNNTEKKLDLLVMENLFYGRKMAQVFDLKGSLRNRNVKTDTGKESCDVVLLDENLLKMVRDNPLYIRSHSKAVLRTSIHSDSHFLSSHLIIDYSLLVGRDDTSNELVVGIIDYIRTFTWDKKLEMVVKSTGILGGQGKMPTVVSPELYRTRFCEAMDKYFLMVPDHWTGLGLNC

Compound: N#Cc1cccc(-c2c[nH]c3ncnc(N4CCOCC4)c23)c1 [Example 4, 3-[4-(Morpholin-4-yl)-7H-pyrrolo[2,3-d]pyrimidin-5-yl]benzonitrile]
- inhibition at 0.1 µM [1]: -12.7%
- inhibition at 1 µM [1]: -2.5%
- inhibition at 0.1 µM [2, 37]: 3.1%
- inhibition at 1 µM [2, 37]: 58.4%
- inhibition at 0.1 µM [2, 38]: 9.3%
- inhibition at 1 µM [2, 38]: 54.3%
- inhibition at 0.1 µM [3]: -14%
- inhibition at 1 µM [3]: -12.4%
- percent inhibition ([4]; 0.1 μM): −6.7%
- percent inhibition ([4]; 1 μM): 18.8%
- inhibition at 0.1 µM [5]: -2.1%
- inhibition at 1 µM [5]: 16.4%
- inhibition at 0.1 µM [6]: -9.2%
- inhibition at 1 µM [6]: 1.9%
- inhibition at 0.1 µM [7]: -7%
- inhibition at 1 µM [7]: 7.4%
- inhibition at 0.1 µM [8]: -10.1%
- inhibition at 1 µM [8]: 14.5%
- percent inhibition ([9]; 0.1 μM): −8.7%
- percent inhibition ([9]; 1 μM): 11.7%
- inhibition at 0.1 µM [10]: -1.9%
- inhibition at 1 µM [10]: -9.1%
- percent inhibition ([11]; 0.1 μM): −5.4%
- percent inhibition ([11]; 1 μM): 24.7%
- inhibition at 0.1 µM [12]: -7.2%
- inhibition at 1 µM [12]: 16.2%
- inhibition at 0.1 µM [13]: 0.7%
- inhibition at 1 µM [13]: 16.4%
- inhibition at 0.1 µM [14]: 1.1%
- inhibition at 1 µM [14]: -1.8%
- inhibition at 0.1 µM [15]: 3.6%
- inhibition at 1 µM [15]: 31.2%
- inhibition at 0.1 µM [16]: -8.4%
- inhibition at 1 µM [16]: -9.4%
- inhibition at 0.1 µM [17]: -3.3%
- inhibition at 1 µM [17]: 7.2%
- percent inhibition ([18]; 0.1 μM): 1.7%
- percent inhibition ([18]; 1 μM): −6%
- inhibition at 0.1 µM [19]: -23.1%
- inhibition at 1 µM [19]: -55.4%
- percent inhibition ([20]; 0.1 μM): −4.5%
- percent inhibition ([20]; 1 μM): 32.5%
- inhibition at 0.1 µM [21]: -11.2%
- inhibition at 1 µM [21]: 21.6%
- percent inhibition ([22]; 0.1 μM): 11.9%
- percent inhibition ([22]; 1 μM): 60.7%
- percent inhibition ([23]; 0.1 μM): −29.4%
- percent inhibition ([23]; 1 μM): −0.9%
- percent inhibition ([24]; 0.1 μM): −12.4%
- percent inhibition ([24]; 1 μM): 10.7%
- inhibition at 0.1 µM [25]: -8.8%
- inhibition at 1 µM [25]: -6.3%
- inhibition at 0.1 µM [26]: 7.3%
- inhibition at 1 µM [26]: 16.4%
- percent inhibition ([27]; 0.1 μM): −22.8%
- percent inhibition ([27]; 1 μM): −8.8%
- inhibition at 0.1 µM [28]: -3.2%
- inhibition at 1 µM [28]: 8%
- inhibition at 0.1 µM [29]: 9.7%
- inhibition at 1 µM [29]: 29.8%
- inhibition at 0.1 µM [30]: 1.2%
- inhibition at 1 µM [30]: -1.2%
- inhibition at 0.1 µM [31]: -27.1%
- inhibition at 1 µM [31]: 2.8%
- inhibition at 0.1 µM [32]: -15.1%
- inhibition at 1 µM [32]: 13.5%
- inhibition at 0.1 µM [33]: -4.6%
- inhibition at 1 µM [33]: -3.7%
- inhibition at 0.1 µM [34]: -4.9%
- inhibition at 1 µM [34]: 6.8%
- inhibition at 0.1 µM [35]: -11.9%
- inhibition at 1 µM [35]: 18.1%
- inhibition at 0.1 µM [36]: -14.6%
- inhibition at 1 µM [36]: -1.7%
